Assay results: patent US8975259B2, “Compositions and methods for inhibiting G protein signaling” (University of Rochester, priority 2007, dated 2015)
“And” between values parts separate entries of the source, which are not always exact repeats. Equal values may be shown once.

Key:
[1] = molecular target: T1, Fαi1GDPβ1γ2 heterotrimer (UniProt P54311+P63212); assay: Dissociation of Fαi1 from preformed Fαi1β1γ2 heterotrimer (flow cytometry); assay type: binding; settings: result in words
T1 construct: made in house; host or cells: b-βγ: Sf9 insect cells
Description: Assays were used to determine peptide effects on Gα-Gβγ interactions included competition and dissociation assays (Ghosh, et al. (2003) supra). […] To measure dissociation of Fan from b-Gβaγ2, 100 pM of Fa^ was incubated with 50 pM immobilized b-Gβ1γ2 at room temperature for 15-20 minutes. The fluorescence of bound Fαii subunit was measured, followed by the addition of a 200-fold excess of unlabeled Gcx±x or peptides and the amount of Fan remaining bound to the beads was measured at the indicated times.
The ability of peptides to dissociate a preformed hetero-trimer was assessed by comparing the rates of Fαi1 dissociation from Fαi1β1γ2 with excess unlabeled αi1 competitor (intrinsic dissocia-tion rate) and in the presence of a saturating concentration of peptide.

[2] = system: opioid-induced antinociception in mice; assay: 55° C. warm-water tail-flick antinociception; assay type: in vivo, mouse
[3] = system: M3 muscarinic receptor-dependent Ca2+ release in HEK-293 cells; assay: Carbachol-dependent Ca2+ release in HEK-293 cells expressing M3 muscarinic receptor; assay type: cell-based; settings: 10 μM; result in words
[4] = system: human δ opioid receptor (hDOR-CHO cells); assay: Total inositol phosphate assay in hDOR-CHO cells; assay type: cell-based; settings: DPDPE, Deltorphin II, M119 10 μM; naltrindole 100 μM; result in words
Description: Chinese hamster ovary (CHO) cells stably expressing either the human κ (hKOR-CHO), δ (hDOR-CHO)(L. Toll, Stanford Research Institute, Palo Alto, Calif.) or μ (hMOR-CHO)(G. Uhl, National Institute on Drug Abuse, Baltimore, Md.) opioid receptor were used in the experiments. Cells in 6-well plates were labeled by adding 4 μCi of [^3H]inositol for 24 hr in inositol-free F-10 media, without serum. After labeling, LiCl was added directly to the labeling media at a final concentration of 10 mM. Ligands or peptides were added at the same time. The final volume of each well was 1 mL. The plates were put back in to the incubator at 37° C. for 30 min after which time the medium was aspirated and the plates were washed twice with 1× PBS. Ice-cold 50 mM formic acid, 1 mL, was added to the plates which were placed in the cold room at 4° C. for 30 min. After the incubation, the contents of the plates were applied to Dowex AG1-X8 columns and allowed to flow all the way through the column. The columns were washed, twice each, with 50 and 100 mM formic acid, for a total of four washes, followed by elution of the IP-containing fraction with 3 mL of 1.2 M ammonium formate/0.1 M formic acid. The eluted fraction was mixed with Scintisafe scintillation fluid, for high salt, and counted. The data are represented as the fold increase over control in total inositol phospates. All experiments were repeated three times and performed in duplicate. Control cells for each experiment were labeled with [^3H]inositol and LiCl, in the same manner as the treatment groups.

[5] = system: ERK1 and ERK2 activation in differentiated HL60 cells; assay: fMLP-induced ERK1 and ERK2 activation in differentiated HL60 cells; assay type: cell-based, human; settings: 10 μM compound, 1 μM fMLP, result in words
Description: Cells were pretreated with DMSO or 10 μM compounds for 5 min prior to stimulation with 250 nM fMLP. […] Normalized peak Ca^2+ responses were pooled from three independent experiments each (mean±SEM). Cells were pretreated with DMSO (▪) or compounds (▴) for 5 min prior to stimulation. FIG. 5C is the same as A except 10 μM M201 was tested. […] Differentiated HL60 cells were treated with 10 μM compound prior to stimulation with 250 nM fMLP. Translocation of endogenous GRK2 was determined by Western blotting with a GRK2 antibody and quantitative chemiluminescence. Data are mean±SEM from 5 experiments, * P<0.05, **P<0.01 ANOVA. […] Differentiated HL60 cells stably over-expressing GFP-PHAkt were treated with 10 μM compound prior to stimulation with 100 nM fMLP. Translocation of GFP-PHAkt to the membrane was determined by Western blotting with an anti-GFP antibody and quantitative chemiluminescence. Data are mean±SEM from 4 experiments. *** P<0.001 ANOVA. […] Differentiated HL60 cells were pretreated with 10 μM of compound prior to stimulation with 1 μM fMLP for 5 min. Levels of phosphorylated and total ERK were determined by Western blotting.

[6] = molecular target: T2, PLCβ2-bGβ1γ2 interaction (UniProt P54311+P63212); assay: PLCβ2 binding to biotinylated Gβ1γ2 (avidin agarose precipitation); settings: M119 10 μM, M201 1 μM; result in words
T2 construct: made in house; host or cells: bGβ1γ2: Sf9 insect cells
Description: Purified PLCβ2 (0.25 ng) was assayed in the presence (▴) or absence (▪) of 100 nM purified Gβ1γ2. […] Assays contained 10 ng of purified p101/p110 PI3Kγ heterodimer with or without 100 nM purified Gβ1γ2. Left panel: (▴) 100 nM Gβ1γ2 or (▪) no βγ. […] M119 or M201 and 25 nM purified GRK2 were added simultaneously to 250 nM biotinylated Gβ1γ2 (bGβ1γ2) immobilized on streptavidin agarose. GRK2 was detected with antibody to GRK2. Data are representative (mean ±SEM, except D) repeated at least three times each. […] 30 nM bGβ1γ2 was incubated with either 30 nM PLCβ2 or PLCβ3 in the presence or absence of M119 or M201 for 16 h at 4° C. before precipitation with avidin agarose and detection with PLCβ2,or Gβ antibodies. […] Same as 4E with PLCβ3.

[7] = system: GRK2 membrane recruitment in adult mouse cardiomyocytes; assay: β-AR-mediated GRK2 membrane recruitment in isolated adult mouse cardiomyocytes; assay type: cell-based; settings: result in words
Description: Thus, it was tested whether M119 could block GRK2 recruitment to membrane-bound Gβγ subunits upon agonist stimulation of β-AR in cardiomyocytes, similar to what had been observed in vitro with the peptide inhibitors described above. Indeed M119 reduced β-AR-mediated recruitment of GRK2 to membranes of isolated adult mouse cardiomyocytes, with a mild reduction of membrane associated GRK2 at baseline.

[8] = system: carrageenan-induced paw edema in mice; assay: Carrageenan-induced paw edema and neutrophil abundance
[9] = molecular target: Gβ1γ2 (UniProt P54311+P63212); parameters: made in house; host or cells: Sf9 insect cells (baculovirus; co-expressed with BirA and (His)6-Gαi1, from which βγ was eluted); settings: Table 20, competition ELISA for SIGK binding; data from Bonacci et al. (2006); cited from earlier work
Sequence of Gβ1γ2 (P54311 whole entry): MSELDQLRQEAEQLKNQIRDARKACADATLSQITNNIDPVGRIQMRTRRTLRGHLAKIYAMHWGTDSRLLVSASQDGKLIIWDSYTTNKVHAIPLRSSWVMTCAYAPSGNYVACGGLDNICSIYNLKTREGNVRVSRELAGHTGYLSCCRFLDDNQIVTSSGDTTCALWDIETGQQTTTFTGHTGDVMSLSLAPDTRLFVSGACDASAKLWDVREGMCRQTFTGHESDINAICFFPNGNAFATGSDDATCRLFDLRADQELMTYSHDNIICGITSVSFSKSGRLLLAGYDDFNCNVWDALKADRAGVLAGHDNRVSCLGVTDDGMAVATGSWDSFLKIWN
Sequence of Gβ1γ2 (P63212 2-68 limits assumed): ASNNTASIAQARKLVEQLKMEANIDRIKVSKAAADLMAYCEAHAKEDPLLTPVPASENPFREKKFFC

T2 sequence (P54311 whole entry): as the sequence (P54311 whole entry) above
T2 sequence (P63212 2-68 limits assumed): as the sequence (P63212 2-68 limits assumed) above
T1 sequence (P54311 whole entry): as the sequence (P54311 whole entry) above
T1 sequence (P63212 2-68 limits assumed): as the sequence (P63212 2-68 limits assumed) above

Structure (SMILES): O=C(O)C1CCCCC1c1c2ccc(=O)c(O)c-2oc2c(O)c(O)ccc12 (stereo not shown) [Compound M119, cyclohexanecarboxylic acid, 2-(4,5,6-trihydroxy-3-oxo-3H-xanthen-9-yl)-(9cl)]
- promotion/acceleration of heterotrimer dissociation [1]: did not promote dissociation
- ED50 of Deltorphin II in the presence of M119 ([2]; M119 100 nmol i.c.v.): 11 nmol
- ED50 of DAMGO co-administered with M119 ([2]; mouse, in vivo): 0.01 nmol
- ED50 of DPDPE with M119 ([2]; mouse, in vivo): 5.4 nmol
- ED50 of U50,488 with M119 ([2]; mouse, in vivo): 17 nmol
- ED50 of morphine co-administered with the compound ([2]; mouse, in vivo): 0.065 nmol and 0.069 (0.023-0.201) nmol
- Percent Antinociception ± S.E.M. ([2]; mouse, in vivo): 100 ± 0.0% and 79.3 ± 9.1% and 64.4 ± 10.0% and 55.3 ± 12.7%
- effect of compound alone on baseline antinociception ([2]; mouse, in vivo): no effect
- leftward shift in the DAMGO dose-response curve ([2]; mouse, in vivo): 7 fold
- shift in the U50,488 dose-response curve ([2]; mouse, in vivo): 2 fold
- shift of morphine ED50 / increase in analgesic potency of morphine ([2]; mouse, in vivo): 11 fold
- leftward shift of systemic morphine ED50 ([2]; mouse, in vivo, 100 mg/kg): 4 fold
- effect on carbachol-dependent increases in Ca^2+ [3]: no effect
- effect on IP generation over control treated cells [4]: no significant effect
- effect on fMLP-induced activation of ERK1 and ERK2 [5]: did not block
- effect on fMLP-induced activation of ERK1 and ERK2 ([5]; listed as NSC119910): without interfering
- effect on direct binding of bGβ1γ2 to PLCβ2 [6]: inhibited
- effect on β-AR-mediated recruitment of GRK2 to membranes [7]: reduced

Structure (SMILES): O=C(O)c1ccccc1-c1c2ccc(=O)c(O)c-2oc2c(O)c(O)ccc12 (racemic) [Gallein]
- reduction of number of neutrophils in the edematous fluid ([8]; 100 mg/kg i.p., 2 h after carrageenan): approximately half
- ED50 ([8]; Mus musculus, ip, read-out: ED50 for inhibiting paw edema): ~20 mg/kg
- effect on carrageenan-induced paw edema ([8]; i.p. 1 h before carrageenan, gallein 100 mg/kg, indomethacin 2.5 mg/kg, result in words): reduced paw edema to levels comparable with that of indomethacin
- reduction of exudate volume ([8]; i.p. pretreatment, 2 h after carrageenan): approximately 75%
- reduction of paw swelling ([8]; oral gavage 30 mg/kg 1 h before carrageenan, 3 h after carrageenan): 40%
- effect on paw thickness in the absence of carrageenan ([8]; result in words): no effect

Structure (SMILES): O=C(O)C1CCCCC1c1c2ccc(=O)cc-2oc2cc(O)ccc12 (stereo not shown) [Compound M119B]
- IC50 [9]: > 300 µM
